Here are results for one molecule from patent publication US20240325544A1, “CATIONIC LIPID FOR COVALENT MODIFICATION OF PEPTIDES” (PharmalN Corporation, priority 2023, published 2024).

Bridge positions count the residues as written; N and C are the ends. Square brackets hold non-standard residues; d marks the D form. Peptide text beside a SMILES is read from it. * marks the point of attachment. Palmitoyl = CCCCCCCCCCCCCCCC(=O)*; Dap = NC[C@H](N)C(=O)O; AEEA = NCCOCCOCC(=O)O

One assay concerns LM8 osteosarcoma cells. Briefly: Orthotopic mouse model of lung metastasis using osteosarcoma LM8 cells with amputation (FIG. 11). In kind it is in vivo, mice. The following applies: 0.3 mg/kg SC with amputation on Day 7; Day 34. The protocol: FIGS. 11A-11C. […] Error bars indicate standard error of the mean. […] Also illustrated in this diagram are the corresponding treatment schedules for SEQ ID NO: 31 and amputation. From tumor implantation, the SEQ ID NO: 31 treated group was dosed SC (0.3 mg/kg/0.1 μmol/kg in buffer) on Days 4-8, 11-15, 18-22, and 25-26. On Day 7 post-inoculation, all mice underwent amputation to remove the primary tumor. In place of treatment, the amputated control group also received buffer on the same days that SEQ ID NO: 31 was administered. Mice were sacrificed on Day 34, and lung tissues were harvested. FIGS. 11B and 11C) Lung tissues were soaked in 4% paraformaldehyde, paraffin-embedded, and sections were stained with hematoxylin and eosin (H&E). Lung images were observed using high-resolution microscopy (Keyence, Tokyo, Japan, #BZ-X700), and lung metastasis was evaluated by the direct count of present metastatic lung nodules. […]
Animal care and treatment: Male […] mice (7 weeks-old) were purchased from Kyudo (Saga, Japan) and maintained under a 12-hour light/12-hour dark cycle with free access to water and standard mouse diet (MF diet; Oriental Yeast Co., Ltd., Tokyo, Japan). […] Lung images were observed using the high-resolution microscopy (Keyence, Tokyo, Japan, #BZ-X700), and lung metastasis was evaluated by the direct count of present metastatic nodules (FIG. 11C). […]

In the next assay the target is T1, NPR-C (Homo sapiens, UniProt P17342).
T1 construct: HeLa cells (known to express NPR-C); host or cells: HeLa cells
T1 sequence (P17342 27-541): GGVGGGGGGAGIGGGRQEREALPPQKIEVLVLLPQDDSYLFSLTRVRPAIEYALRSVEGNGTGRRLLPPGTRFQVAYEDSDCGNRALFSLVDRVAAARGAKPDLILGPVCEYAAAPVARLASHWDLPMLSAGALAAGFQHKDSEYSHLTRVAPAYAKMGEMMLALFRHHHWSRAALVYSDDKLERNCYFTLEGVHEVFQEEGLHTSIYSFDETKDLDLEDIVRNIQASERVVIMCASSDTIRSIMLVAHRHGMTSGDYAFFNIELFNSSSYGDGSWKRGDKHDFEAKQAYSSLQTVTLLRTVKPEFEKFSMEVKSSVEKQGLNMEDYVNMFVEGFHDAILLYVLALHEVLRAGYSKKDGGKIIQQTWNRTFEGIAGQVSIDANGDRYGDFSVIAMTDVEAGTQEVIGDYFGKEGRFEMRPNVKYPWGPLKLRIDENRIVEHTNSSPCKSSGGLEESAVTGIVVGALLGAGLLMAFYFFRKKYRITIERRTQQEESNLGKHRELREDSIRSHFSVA
Put plainly: cAMP baseline levels in HeLa cells (FIG. 13). Type of assay: cell-based. The following applies: 10 μg/mL, 10 minutes, 1 mM IBMX. The protocol: In this study, HeLa cells were cultured in Dulbecco modified Eagle medium (DMEM) supplemented with 10% FBS under 100% humidity and 5% CO2 at 37° C. The cells were harvested and suspended at a concentration of 10^7 cells/mL in ENGS and 5 uL of the cell suspension was added to each well of a 96-well low-adhesion plate. The cells (n=4 wells) were then treated with 5 uL of SEQ ID NO: 31 (final concentration of 10 μg/mL) in ENGS with 1 mM IBMX for 10 minutes. cAMP levels were evaluated using a cAMP assay kit (PerkinElmer, Waltham, MA, USA, #62AM4PEB) in accordance with its manufacture's protocol with a PerkinElmer plate reader. Statistical analysis was performed with GraphPad Prism against untreated control wells (n=4 wells) * P<0.05. The NPR-C receptor has been implicated in inhibiting adenylate cyclase activity, which would lead to a decrease in cyclic adenosine monophosphate (cAMP) production.
In vitro protocol: HeLa cells were purchased from ATCC (Manassas, VA, USA). […] Then, the cells (n=4 wells) were treated with 5 uL of SEQ ID NO: 31 (final concentration of 10 μg/mL) in ENGS with 1 mM IBMX (Fujifilm, Tokyo, Japan, #099-03411) for 10 minutes. cAMP levels were evaluated using a cAMP assay kit (PerkinElmer, Waltham, MA, USA, #62AM4PEB) in accordance with its manufacture's protocol with a plate reader (PerkinElmer, Waltham, MA, USA, #Nivo). […]

Turning to `CCCCCCCCCCCCCCCC(=O)NCCOCCOCC(=O)NCCOCCOCC(=O)NCCOCCOCC(=O)N[C@@H](CN)C(=O)N[C@@H](CN)C(=O)NCC(=O)N[C@@H](CC(C)C)C(=O)N[C@@H](CO)C(=O)N[C@@H](CCCCN)C(=O)NCC(=O)N[C@H]1CSSC[C@@H](C(=O)O)NC(=O)CNC(=O)[C@H](CC(C)C)NC(=O)CNC(=O)[C@H](CO)NC(=O)[C@H](CCC(N)=O)NC(=O)[C@H](CO)NC(=O)CNC(=O)[C@H]([C@@H](C)CC)NC(=O)[C@H](CCCNC(=N)N)NC(=O)[C@H](CC(=O)O)NC(=O)[C@H](CC(C)C)NC(=O)[C@H](CCCCN)NC(=O)[C@H](CC(C)C)NC(=O)CNC(=O)[C@H](Cc2ccccc2)NC1=O` [SEQ ID NO: 31] ({Palmitoyl-AEEA-AEEA-AEEA}-[Dap][Dap]GLSKGCFGLKLDRIGSQSGLGC-OH; disulfide 8-24; C-terminus assumed), the “Metastatic nodules present in the lung vs amputation alone” value in the assay on LM8 osteosarcoma cells is “significant reduction”. The “cAMP baseline levels of HeLa cells” value on NPR-C is listed as “changes (inhibition) of cAMP baseline levels”.
